{"source": "patent US11180483B2", "about": "“Substituted reverse pyrimidine Bmi-1 inhibitors” (PTC Therapeutics, Inc., priority 2012, dated 2021)"}
{"tested_on": "Bmi-1", "experiment": "Sandwich ELISA Assay (Bmi-1 ELISA) in HT-1080 cells", "format": "cell-based", "experimental": "Cell Seeding and Compound Treatment (Day 1):\nHT-1080 cells were seeded at 8000 cells/well (50 μL) in 96-well tissue culture plates. After the cells became adherent (3-4 hours), 2× diluted stocks of test compounds in 50 μL DMEM containing 1% DMSO (final DMSO concentration was 0.5%) were added and the plates were incubated at 37° C. under 5% CO2 for 40-48 hours.\nELISA Plate First Antibody Preparation (Day 2):\nThe First Antibody (Millipore Mouse, monoclonal to mouse Bmi-1, clone F6, catalog #05-637) diluted to 2 μg/mL in PBS was added (100 μL) to each well of a Nunc MaxiSorp 96-well ELISA plate. The plate was covered with a plate seal and allowed to stand overnight.\nCell Lysate Preparation (Day 3):\nFresh 1× Lysis buffer was prepared on the day of the assay as follows: 1 mM EDTA, 150 mM NaCl, 0.5% Triton-X 100, 10 mM NaF, 20 mM B-Glycerophosphate, 1 mM DTT (in PBS, pH 7.2-7.4) and 1× HALT protease inhibitor cocktail (Pierce #78410).\nThe 1× Lysis Buffer (40 μL) was added to each well and the plate was shaken for 5-10 minutes on an orbital shaker to allow cell lysis, then diluent (1% BSA in PBS in 0.5% NP40) (100 μL) was added to each well.\nA standard curve was prepared at the following Bmi-1 concentrations: 8000, 4000, 2000, 1000, 500, 250, 125, 0 pg/mL The Bmi-1 Recombinant Protein Standard (Novus Biologicals PCGF4 Recombinant Protein (P01), catalog #H00000648-P01) used to prepare the standard curve was stored at −80° C. On first thaw, the Bmi-1 Recombinant Protein Standard was diluted to […] in Blocking Buffer (1% BSA in PBS; BSA: Fisher Scientific Catalog #1600-100). Aliquots were taken and refrozen at −80° C. The aliquots may be kept at 4° C. and reused after first thaw, but only within 1-2 weeks. The Bmi-1 Recombinant Protein Standard contains a GST-fusion tag that appears around 70 Kda on Western Blot.\nThe prepared ELISA plate was washed 3× with Wash Buffer (0.05% Tween-20 in PBS). The final wash was removed from the plate and the plate was blotted dry. Blocking Buffer (300 μL) (1% BSA in PBS) was added to each well. The plate was covered with a plate seal and incubated at room temperature for 1 hour. The blocked plate was washed 3× with Wash Buffer, then the final wash was removed and the plate was blotted dry. The previously prepared samples and standards were added (100 μL/well) and the plate was covered with a plate seal and incubated at 4° C. overnight.\nThe prepared ELISA plate was removed from 4° C., incubated at room temperature for 30 minutes, then washed and blotted dry as previously described for Day 3. The Second Antibody (Cell Signaling Rabbit anti-Bmi-1, Cat #2830) diluted to 1:600 in Blocking Buffer was added (100 μL) to each well, except as needed for background control wells. The plate was covered with a plate seal and incubated for 1.5 hrs at room temperature.\nThe ELISA plate was washed and blotted dry as previously described. The Third Antibody (Cell Signaling HRP conjugated anti-rabbit IgG (CellSignaling, Cat #:7074) diluted to 1:300 in Blocking Buffer was added (100 μL) to each well, except as needed for background control wells. The plate was incubated for 1 hr at room temperature.\nThe plate was washed and blotted dry as previously described, then prepared TMB substrate (TMB substrate kit, Pierce catalog #34021) (prepared by mixing kit reagents 1:1) (100 μL) was added per well. The plate was incubated for 20-30 minutes at room temperature in the dark, then Stop Solution (2 M sulfuric acid in water) (50 μL) was added per well. The plates were read at OD450 (experimental) and OD570 (reference).", "units": {"EC50": "nM"}}
{"smiles": "Cc1nc2ccccn2c1-c1nccc(Nc2ccc3c(c2)OCCO3)n1", "note": "[Cpd 2, N-(2,3-dihydro-1,4-benzodioxin-6-yl)-2-(2-methylimidazo[1,2-a]pyridin-3-yl)pyrimidin-4-amine]", "EC50": "100 to 3000"}
{"smiles": "Cc1nc2ncccc2n1-c1nc(N)cc(Nc2ccc(C(F)(F)F)cc2)n1", "note": "[Cpd 73, 2-(2-methyl-1H-imidazo[4,5-b]pyridin-1-yl)-N-[4-(trifluoromethyl)phenyl]pyrimidine-4,6-diamine]", "EC50": "10 to 100"}
{"smiles": "FC(F)(F)c1ccc(Nc2ccnc(-c3c(C(F)(F)F)nn4ccccc34)n2)cc1", "note": "[Cpd 56, N-[4-(trifluoromethyl)phenyl]-2-[2-(trifluoromethyl)pyrazolo[1,5-a]pyridin-3-yl]pyrimidin-4-amine]", "EC50": "100 to 3000"}
{"smiles": "FC(F)(F)c1ccc(Nc2ccnc(-c3cnc4ccccn34)n2)cc1", "note": "[Cpd 118, 2-(imidazo[1,2-a]pyridin-3-yl)-N-[4-(trifluoromethyl)phenyl]pyrimidin-4-amine]", "EC50": "100 to 3000"}
{"smiles": "Cc1nc2ccccc2n1-c1nc(N)cc(Nc2ccc(C(F)(F)F)c(F)c2)n1", "note": "[Cpd 80, N-[3-fluoro-4-(trifluoromethyl)phenyl]-2-(2-methyl-1H-benzimidazol-1-yl)pyrimidine-4,6-diamine]", "EC50": "10 to 100"}
{"smiles": "Cc1nc2cc(F)ccc2n1-c1nc(N)c(F)c(Nc2ccc(C(F)(F)F)cc2)n1", "note": "[Cpd 108, 5-fluoro-2-(5-fluoro-2-methyl-1H-benzimidazol-1-yl)-N-[4-(trifluoromethyl)phenyl]pyrimidine-4,6-diamine]", "EC50": "100 to 3000"}
{"smiles": "Cc1nc2ccc(F)cc2n1-c1nc(N)c(F)c(Nc2ccc(Cl)c(F)c2)n1", "note": "[Cpd 262, N-(4-chloro-3-fluorophenyl)-5-fluoro-2-(6-fluoro-2-methyl-1H-benzimidazol-1-yl)pyrimidine-4,6-diamine]", "EC50": "10 to 100"}
{"smiles": "Cc1ccc(Nc2cc(N)nc(-n3c(C)nc4ccc(F)cc43)n2)cc1", "note": "[Cpd 264, 2-(6-fluoro-2-methyl-1H-benzimidazol-1-yl)-N-(4-methylphenyl)pyrimidine-4,6-diamine]", "EC50": "1 to 10"}
{"smiles": "Cn1c(C(F)(F)F)c(-c2nccc(Nc3ccc(OC(F)F)cc3)n2)c2cc(Cl)ccc21", "note": "[Cpd 24, 2-[5-chloro-1-methyl-2-(trifluoromethyl)-1H-indol-3-yl]-N-[4-(difluoromethoxy)phenyl]pyrimidin-4-amine]", "EC50": "100 to 3000"}
{"smiles": "Cc1nc2ccc(C#N)cc2n1-c1nc(N)c(F)c(Nc2ccc(C(F)(F)F)cc2)n1", "note": "[Cpd 222, 1-(4-amino-5-fluoro-6-{[4-(trifluoromethyl)phenyl]amino}pyrimidin-2-yl)-2-methyl-1H-benzimidazole-6-carbonitrile]", "EC50": "100 to 3000"}
{"smiles": "Cc1ccc(Nc2nc(-n3c(C)nc4ccc(C#N)cc43)nc(N)c2F)cc1", "note": "[Cpd 224]", "EC50": "10 to 100"}
{"smiles": "CCc1nc2cc(F)ccc2n1-c1nc(N)c(F)c(Nc2ccc(OC(F)F)cc2)n1", "note": "[Cpd 163, N-[4-(difluoromethoxy)phenyl]-2-(2-ethyl-5-fluoro-1H-benzimidazol-1-yl)-5-fluoropyrimidine-4,6-diamine]", "EC50": "10 to 100"}
{"smiles": "Cc1nc2ccc(C(F)(F)F)cn2c1-c1nccc(Nc2ccc(Br)cc2)n1", "note": "[Cpd 19, N-(4-bromophenyl)-2-[2-methyl-6-(trifluoromethyl)imidazo[1,2-a]pyridin-3-yl]pyrimidin-4-amine]", "EC50": "100 to 3000"}
{"smiles": "Cc1nc2ccc(N)cc2n1-c1nc(N)c(F)c(Nc2ccc(OC(F)F)cc2)n1", "note": "[Cpd 257, 2-(6-amino-2-methyl-1H-benzimidazol-1-yl)-N-[4-(difluoromethoxy)phenyl]-5-fluoropyrimidine-4,6-diamine]", "EC50": "10 to 100"}
{"smiles": "Cc1nc2cc(F)ccc2n1-c1nc(N)c(F)c(Nc2ccc(Cl)c(F)c2)n1", "note": "[Cpd 260, N-(4-chloro-3-fluorophenyl)-5-fluoro-2-(5-fluoro-2-methyl-1H-benzimidazol-1-yl)pyrimidine-4,6-diamine]", "EC50": "100 to 3000"}
{"smiles": "Fc1ccc2nc(-c3ccccc3)c(-c3nccc(Nc4ccc(Br)cc4)n3)n2c1", "note": "[Cpd 26, N-(4-bromophenyl)-2-(6-fluoro-2-phenylimidazo[1,2-a]pyridin-3-yl)pyrimidin-4-amine]", "EC50": "100 to 3000"}
{"smiles": "Cc1nc2c(F)cc(F)cc2n1-c1nc(N)c(F)c(Nc2ccc(Cl)cc2)n1", "note": "[Cpd 237, N-(4-chlorophenyl)-2-(4,6-difluoro-2-methyl-1H-benzimidazol-1-yl)-5-fluoropyrimidine-4,6-diamine]", "EC50": "10 to 100"}
{"smiles": "Cc1nc2cc(F)c(F)cc2n1-c1nc(N)c(F)c(Nc2ccc(OC(F)F)c(F)c2)n1", "note": "[Cpd 126, N-[4-(difluoromethoxy)-3-fluorophenyl]-2-(5,6-difluoro-2-methyl-1H-benzimidazol-1-yl)-5-fluoropyrimidine-4,6-diamine]", "EC50": "10 to 100"}
{"smiles": "Cc1nc2cc(Cl)ccc2n1-c1nc(N)c(F)c(Nc2ccc(OC(F)F)cc2)n1", "note": "[Cpd 159, 2-(5-chloro-2-methyl-1H-benzimidazol-1-yl)-N-[4-(difluoromethoxy)phenyl]-5-fluoropyrimidine-4,6-diamine]", "EC50": "100 to 3000"}
{"smiles": "Cc1nc2ccc(N)cc2n1-c1nc(N)c(F)c(Nc2ccc(C(F)(F)F)cc2)n1", "note": "[Cpd 284, 2-(6-amino-2-methyl-1H-benzimidazol-1-yl)-5-fluoro-N-[4-(trifluoromethyl)phenyl]pyrimidine-4,6-diamine]", "EC50": "10 to 100"}
{"smiles": "Cc1nc2c(F)cc(F)cc2n1-c1nc(N)c(F)c(Nc2ccc(OC(F)(F)F)cc2)n1", "note": "[Cpd 238, 2-(4,6-difluoro-2-methyl-1H-benzimidazol-1-yl)-5-fluoro-N-[4-(trifluoromethoxy)phenyl]pyrimidine-4,6-diamine]", "EC50": "100 to 3000"}
{"smiles": "FC(F)Oc1ccc(Nc2ccnc(-c3c(C(F)(F)F)nc4cnccn34)n2)cc1", "note": "[Cpd 53, N-[4-(difluoromethoxy)phenyl]-2-[2-(trifluoromethyl)imidazo[1,2-a]pyrazin-3-yl]pyrimidin-4-amine]", "EC50": "100 to 3000"}
{"smiles": "Cc1ccc(Nc2nc(-n3c(C4CC4)nc4ccccc43)nc(N)c2F)cc1", "note": "[Cpd 276, 2-(2-cyclopropyl-1H-benzimidazol-1-yl)-5-fluoro-N-(4-methylphenyl)pyrimidine-4,6-diamine]", "EC50": "1 to 10"}
{"smiles": "Cc1ccc(Nc2nc(-n3c(C)nc4ccc(F)cc43)nc(N)c2F)cc1", "note": "[Cpd 184, 5-fluoro-2-(6-fluoro-2-methyl-1H-benzimidazol-1-yl)-N-(4-methylphenyl)pyrimidine-4,6-diamine]", "EC50": "1 to 10"}
{"smiles": "Cc1nc2cc(F)c(F)cc2n1-c1nc(N)c(F)c(Nc2ccc(OC(F)F)cc2)n1", "note": "[Cpd 133, N-[4-(difluoromethoxy)phenyl]-2-(5,6-difluoro-2-methyl-1H-benzimidazol-1-yl)-5-fluoropyrimidine-4,6-diamine]", "EC50": "10 to 100"}
{"smiles": "FC(F)(F)c1ccc(Nc2ccnc(-c3c(C(F)(F)F)nc4ccc(Br)cn34)n2)cc1", "note": "[Cpd 32, 2-[6-bromo-2-(trifluoromethyl)imidazo[1,2-a]pyridin-3-yl]-N-[4-(trifluoromethyl)phenyl]pyrimidin-4-amine]", "EC50": "100 to 3000"}
{"smiles": "Nc1nc(-n2c(C3CC3)nc3ccccc32)nc(Nc2ccc(C(F)(F)F)cc2)c1F", "note": "[Cpd 120, 2-(2-cyclopropyl-1H-benzimidazol-1-yl)-5-fluoro-N-[4-(trifluoromethyl)phenyl]pyrimidine-4,6-diamine]", "EC50": "10 to 100"}
{"smiles": "COCc1nc2ccccc2n1-c1nc(N)c(F)c(Nc2ccc(Cl)cc2)n1", "note": "[Cpd 219, N-(4-chlorophenyl)-5-fluoro-2-[2-(methoxymethyl)-1H-benzimidazol-1-yl]pyrimidine-4,6-diamine]", "EC50": "100 to 3000"}
